Laboratory results taken from publication PMC6222829, “Synthesis, Molecular Docking and Anticancer Activity of Diflunisal Derivatives as Cyclooxygenase Enzyme Inhibitors” (Molecules : A Journal of Synthetic Chemistry and Natural …, 2018).
“Also recorded” adds a separate entry of the source. Like-named read-outs stand apart in the source and are kept apart here.

Legend:
T47D cell line [1] = experiment: MTS cytotoxicity assay, T47D; type: cell-based, human; set-up: key to IC50 T47D: PCV: Promoting cell viability; NSC: No significant change; details: for IC50: Homo sapiens, T47D; for IC50 / IC50 T47D: MTS assay, 72 h incubation
Experimental: (§1) In this project, the colorectal cancer cell line HCT116 (ATCC® CCL-247™), […] prostate cancer cell line PC-3 (ATCC® CRL-1435™), breast cancer cell lines T47D (ATCC® HTB-133™), MCF7 (ATCC® HTB-22™) and finally, epithelial embryonic kidney cell line HEK293 (ATCC® CRL-1573™) were used. All media were completed with %10 fetal bovine serum (FBS) and %1 penicillin streptomycin amphotericin (PSA). All cells were cultured periodically at 37 °C, 5% (v/v) CO2 and 95% (v/v) air in T-75 flasks. Different media were used for the different cell lines based on ATCC standards: MCF7 and HEK293 cell lines were cultured in DMEM High Mmedium (ATCC, 30-2003); T47D and PC-3 cell lines were cultured in RPM 1640 medium (ATCC, 30-2001); HCT116 cell line was cultured in DMEM F12 medium (ATCC, 30-2006). RPM 1640 medium was further completed with 0.2 unit/mL bovine insulin for the T47D cell line. Cells were passaged when they reached %80 confluency in order to support proliferation.
(§2) The effects of the synthesized compounds on the cell viability were tested. Stock solutions for each compound were prepared by measuring 20 mg of each compound and dissolving it in 1 mL DMSO to a final concentration of […], followed by filtration through a 0.2-μm filter (Sartorius AG, Gottingen, Germany). Then stock solutions were diluted as 1/10, 1/100 and 1/1000 in the designated media and applied on the cell lines. In order to determine the effect of DMSO itself, the same dilutions were performed by using DMSO, only and applied on the cell lines. Cell densities used for each cell line in 96 well plate were as follows: for PC-3, HCT116 and HEK293 cell lines 5000 cells/well; for T47D cell lines 20,000 cells/well. Cell viability was measured by the MTS cytotoxicity assay (CellTiter96 AqueousOne Solution; Promega, Southampton, UK) according to the manufacturer’s instructions. 3-(4,5-Dimethylthiazol-2-yl)-5-(3-carboxymethoxyphenyl)-2-(4-sulfo-phenyl)-2H-tetrazolium (MTS) is a yellow tetrazolium salt which is catabolized to formazan by dehydrogenase enzyme in the mitochondria of the living cells. Formazan is a purple compound and the detection in this assay is based on the measurement of formazan compounds by an ELISA plate reader. After incubating the cells for 72 h, 10 µL MTS reagent and 100 µL designated medium was given to the cells followed by 2 h of incubation at 37 °C. Thereafter, the absorbance at 490 nm was measured by an ELISA plate reader. (BioTek Instruments, Inc., Winooski, VT, USA). The activity doses of the compounds were determined according to 50% cell death rate when compared to DMSO, only after 72 h of incubation. […] IC50 values are calculated by the GraphPad prism software.

PC-3 cell line [2] = experiment: MTS cytotoxicity assay, PC-3; type: cell-based, human; set-up: key to IC50 PC-3: PCV: Promoting cell viability; NSC: No significant change; details: for IC50: Homo sapiens, PC-3; for IC50 / IC50 PC-3: MTS assay, 72 h incubation
Experimental: as §1, §2

MCF7 cell line = experiment: MTS cytotoxicity assay, MCF7; type: cell-based; details: Homo sapiens, 72 h incubation
Experimental: as §1, §2

HEK293 cell line [3] = experiment: MTS cytotoxicity assay, HEK293; type: cell-based, human; details: normal cell line; for IC50: Homo sapiens, HEK293, MTS assay, 72 h incubation
Experimental: as §1, §2

HCT116 cell line [4] = experiment: MTS cytotoxicity assay, HCT116; type: cell-based, human; details: for IC50: Homo sapiens, HCT-116, MTS assay, 72 h incubation
Experimental: as §1, §2

T47D cell line [5] = system: T47D cell line; set-up: method as in PMID 20658169, PMID 26580554; details: literature value ref 42,43; cited from earlier work
PC-3 cell line [6] = system: PC-3 cell line; set-up: method as in PMID 20658169, PMID 26580554; details: literature value ref 42,43; cited from earlier work
HCT116 cell line [7] = system: HCT116 cell line; set-up: method as in PMID 20658169, PMID 26580554; details: literature value ref 42,43; cited from earlier work
HEK293 cell line [8] = experiment: Annexin V/PI apoptosis assay, HEK293; type: cell-based; details: FITC-Annexin V/PI flow cytometry
Experimental: (§3) Evaluation of the effect of the synthesized compounds on apoptosis was determined by the FITCH-AnnexinV/PI protocol. Damaged cell membrane of necrotic cell enables propidium iodide (PI) to bind DNA and induces a red fluorescence, although it is excluded by non-damaged cells, select live and apoptotic cells. FITCH-Annexin V has the ability to bind to phosphatidylserine which is a specific marker of apoptosis. […] The lower left panel of the quadrant of the cytograms indicates live cells due to exclusion of PI and non-bound Annexin V.
(§4) The upper left panel of the cytogram represents necrotic cells which are positive for PI. Each cytogram of each cell was analyzed and a histogram graph was drawn for further visual information.
Determination of IC50 values was followed by the investigation of effect of the synthesized compounds on apoptosis. Cells were seeded into six well plates at densities of 15,000 cells/well (PC-3, HCT116 and HEK293 cell lines) and 60,000 cells/well (T47D cell lines). After the treatment cells were harvested and washed with ice cold PBS. 1 × Annexin-binding buffer was prepared while the cells were being washed. Working solution of PI (100 µg/mL) was prepared as well by diluting 5 µL of the 1 mg/mL PI stock solution in 45 µL 1 × Annexin-binding buffer. After the precipitation of the cells, they were resuspended in 500 µL 1 × Annexin-binding buffer. Resuspended cells were separated into four groups (Annexin V, PI, Annexin V + PI and NC) each containing 100 µL of suspension. Five µL of the Annexin V conjugate was added to the proper groups. Samples were incubated for 15 min at room temperature. The incubation step was followed by adding 2 µL of the 100 µg/mL PI working solution to the proper groups then the fluorescence was observed by flow cytometry.

T47D cell line [9] = experiment: Annexin V/PI apoptosis assay, T47D; type: cell-based, human; details: FITC-Annexin V/PI flow cytometry
Experimental: as §3, §4
(§5) Determination of IC50 values was followed by the investigation of effect of the synthesized compounds on apoptosis. Cells were seeded into six well plates at densities of 15,000 cells/well (PC-3, HCT116 and HEK293 cell lines) and 60,000 cells/well (T47D cell lines). After the treatment cells were harvested and washed with ice cold PBS. 1 × Annexin-binding buffer was prepared while the cells were being washed. […] The incubation step was followed by adding 2 µL of the 100 µg/mL PI working solution to the proper groups then the fluorescence was observed by flow cytometry.

HCT116 cell line [10] = experiment: Annexin V/PI apoptosis assay, HCT116; type: cell-based, human; details: FITC-Annexin V/PI flow cytometry
Experimental: as §3, §4, §5

PC-3 cell line [11] = experiment: Annexin V/PI apoptosis assay, PC-3; type: cell-based, human; details: FITC-Annexin V/PI flow cytometry
Experimental: as §3, §4, §5

Oc1ccc(-c2ccc(F)cc2F)cc1-c1n[nH]c(=S)n1-c1cccc(F)c1 [Compound 12, 5-(2′,4′-Difluoro-4-hydroxybiphenyl-3-yl)-4-(3-fluorophenyl)-2,4-dihydro-3H-1,2,4-triazole-3-thione]
IC50 (T47D cell line [1]): 9.24 ± 1.01 µM
IC50 (PC-3 cell line [2]): 34 ± 2.1 µM
IC50 (MCF7 cell line): 15 ± 1.3 µM
IC50 (HEK293 cell line [3]): 10.7 ± 0.96 µM

O=C(NC(=S)NNC(=O)c1cc(-c2ccc(F)cc2F)ccc1O)c1ccccc1 [Compound 8, N-({2-[(2′,4′-Difluoro-4-hydroxybiphenyl-3-yl)carbonyl]hydrazinyl}carbonothioyl)benzamide]
IC50 (T47D cell line [1]): 8.07 ± 2 µM
IC50 (PC-3 cell line [2]): 2.85 ± 3.6 µM
IC50 (HEK293 cell line [3]): 5.04 ± 1.5 µM
IC50 (HCT116 cell line [4]): 3.68 ± 2.1 µM

COc1ccccc1NC(=S)NNC(=O)c1cc(-c2ccc(F)cc2F)ccc1O [Compound 9, 2-[(2′,4′-Difluoro-4-hydroxybiphenyl-3-yl)carbonyl]-N-(2-methoxyphenyl)hydrazine carbothioamide]
IC50 (T47D cell line [1]): 3.86 ± 0.7 µM
IC50 (PC-3 cell line [2]): 1.57 ± 1.4 µM
IC50 (MCF7 cell line): 3.92 ± 0.27 µM
IC50 (HEK293 cell line [3]): 3.02 ± 1.9 µM
IC50 (HCT116 cell line [4]): 1.83 ± 0.92 µM

N.N.[Cl][Pt][Cl] [Cisplatin]
IC50 (T47D cell line [5]): 0.836 µM
IC50 (PC-3 cell line [6]): 39.9 µM
IC50 (HCT116 cell line [7]): 1.25 µM

COc1ccccc1-n1c(-c2cc(-c3ccc(F)cc3F)ccc2O)n[nH]c1=S [Compound 16, 5-(2′,4′-Difluoro-4-hydroxybiphenyl-3-yl)-4-(2-methoxyphenyl)-2,4-dihydro-3H-1,2,4-triazole-3-thione]
anticancer activity against T47D (in words) (T47D cell line [1]): demonstrated anticancer activity
IC50 (T47D cell line [1]): 27.3 ± 2.28 µM
IC50 (PC-3 cell line [2]): 169 ± 3.9 µM
apoptosis / necrosis, HEK293 (HEK293 cell line [8]): did not result in apoptosis
apoptosis / necrosis, T47D (T47D cell line [9]): resulted in necrosis
apoptosis / necrosis, HCT116 (HCT116 cell line [10]): extensive apoptotic effect
IC50 (HEK293 cell line [3]): 53 ± 2.39 µM
cytotoxic effect on HEK293 (in words) (HEK293 cell line [3]): did not show cytotoxic effects
anticancer activity against HCT-116 (in words) (HCT116 cell line [4]): displayed activity
IC50 (HCT116 cell line [4]): 6.2 ± 3.1 µM

CCc1ccc(NC(=S)NNC(=O)c2cc(-c3ccc(F)cc3F)ccc2O)cc1 [Compound 10, 2-[(2′,4′-Difluoro-4-hydroxybiphenyl-3-yl)carbonyl]-N-(4-ethylphenyl)hydrazine carbothioamide]
IC50 T47D (T47D cell line [1]): NSC
anticancer activity against PC-3 (in words) (PC-3 cell line [2]): displayed anti-tumourigenic activity
IC50 (PC-3 cell line [2]): 11.7 ± 2.6 µM
apoptosis / necrosis, PC-3 (PC-3 cell line [11]): increase of late apoptosis markers; also recorded: undergo apoptosis highly
apoptosis / necrosis, HEK293 (HEK293 cell line [8]): slight insignificant increase in necrosis; also recorded: did not result in apoptosis
IC50 (HEK293 cell line [3]): 94 ± 3.74 µM
cytotoxic effect on HEK293 (in words) (HEK293 cell line [3]): did not show cytotoxic effects

O=C(NNC(=S)Nc1cccc(Br)c1)c1cc(-c2ccc(F)cc2F)ccc1O [Compound 6, N-(3-Bromophenyl)-2-[(2′,4′-difluoro-4-hydroxybiphenyl-3-yl)carbonyl]hydrazine carbothioamide]
IC50 (T47D cell line [1]): 100 ± 2.3 µM
anticancer activity against PC-3 (in words) (PC-3 cell line [2]): displayed anti-tumourigenic activity
IC50 (PC-3 cell line [2]): 41.8 ± 3.4 µM
apoptosis / necrosis, PC-3 (PC-3 cell line [11]): increase of late apoptosis markers; also recorded: undergo apoptosis highly
apoptosis / necrosis, HEK293 (HEK293 cell line [8]): did not result in apoptosis
IC50 (HEK293 cell line [3]): 93 ± 3.43 µM
cytotoxic effect on HEK293 (in words) (HEK293 cell line [3]): did not show cytotoxic effects

CCCn1c(-c2cc(-c3ccc(F)cc3F)ccc2O)n[nH]c1=S [Compound 11, 5-(2′,4′-Difluoro-4-hydroxybiphenyl-3-yl)-4-propyl-2,4-dihydro-3H-1,2,4-triazole-3-thione]
IC50 (T47D cell line [1]): 10.1 ± 1.57 µM
IC50 (PC-3 cell line [2]): 174 ± 6.3 µM
IC50 (MCF7 cell line): 22.2 ± 2.3 µM
IC50 (HEK293 cell line [3]): 11.5 ± 0.2 µM

O=C(NNC(=S)Nc1ccc(Br)cc1)c1cc(-c2ccc(F)cc2F)ccc1O [Compound 7, N-(4-Bromophenyl)-2-[(2′,4′-difluoro-4-hydroxybiphenyl-3-yl)carbonyl]hydrazine carbothioamide]
IC50 (T47D cell line [1]): 16.7 ± 2.8 µM
IC50 (PC-3 cell line [2]): 11.7 ± 4.2 µM
IC50 (HEK293 cell line [3]): 3.17 ± 1.06 µM

Oc1ccc(-c2ccc(F)cc2F)cc1-c1n[nH]c(=S)n1-c1cccc(Br)c1 [Compound 14, 4-(3-Bromophenyl)-5-(2′,4′-difluoro-4-hydroxybiphenyl-3-yl)-2,4-dihydro-3H-1,2,4-triazole-3-thione]
IC50 (T47D cell line [1]): 11.5 ± 1.8 µM
IC50 PC-3 (PC-3 cell line [2]): PCV

Oc1ccc(-c2ccc(F)cc2F)cc1-c1n[nH]c(=S)n1-c1cccc(Cl)c1 [Compound 13, 4-(3-Chlorophenyl)-5-(2′,4′-difluoro-4-hydroxybiphenyl-3-yl)-2,4-dihydro-3H-1,2,4-triazole-3-thione]
IC50 (T47D cell line [1]): 5.55 ± 2.7 µM
IC50 (PC-3 cell line [2]): 34.1 ± 3.7 µM
IC50 (MCF7 cell line): 12.9 ± 2.1 µM
IC50 (HEK293 cell line [3]): 8.7 ± 1.79 µM

O=C(NNC(=S)Nc1cccc(Cl)c1)c1cc(-c2ccc(F)cc2F)ccc1O [Compound 5]
IC50 (HEK293 cell line [3]): 44.4 µM

Oc1ccc(-c2ccc(F)cc2F)cc1-c1n[nH]c(=S)n1-c1ccc(Br)cc1 [Compound 15, 4-(4-Bromophenyl)-5-(2′,4′-difluoro-4-hydroxybiphenyl-3-yl)-2,4-dihydro-3H-1,2,4-triazole-3-thione]
anticancer activity against T47D (in words) (T47D cell line [1]): demonstrated anticancer activity
IC50 (T47D cell line [1]): 43.4 ± 2.72 µM
anticancer activity against PC-3 (in words) (PC-3 cell line [2]): did not show any activity
IC50 (PC-3 cell line [2]): 145 ± 2.8 µM
apoptosis / necrosis, HEK293 (HEK293 cell line [8]): did not result in apoptosis
apoptosis / necrosis, T47D (T47D cell line [9]): vast late apoptosis; also recorded: largely through late apoptosis
IC50 (HEK293 cell line [3]): 145 ± 2.3 µM
cytotoxic effect on HEK293 (in words) (HEK293 cell line [3]): did not show cytotoxic effects
anticancer activity against HCT-116 (in words) (HCT116 cell line [4]): did not show any activity

O=C(NNC(=S)Nc1cccc(F)c1)c1cc(-c2ccc(F)cc2F)ccc1O [Compound 4]
IC50 T47D (T47D cell line [1]): PCV
IC50 PC-3 (PC-3 cell line [2]): PCV
IC50 (HEK293 cell line [3]): 617 µM
